# Entries after “also recorded” stand apart in the source; their conditions may differ.
# How the values were obtained:
# [1] = system: HNEC cultures treated with IL-13; assay: IL-13 induced chronic inflammation / mucous metaplasia model in ALI HNEC cultures; format: cell-based, human; details: for percentage of MCCs after IL-13 remodeling / percentage of mucin positive secretory (mucous) cells after IL-13 remodeling: IL-13 ALI+7 to 14, then DAFT (1 um) or semagacestat (125 nm) ALI+14 to 21
# Method: Administration of IL-13 to ALI cultures induces goblet cell hyperplasia and is a useful model of chronic inflammation. ALI HNEC cultures were prepared as described in Vladar et al. ALI cultures were treated with and without administration of I1-13 on days 7−14. DAFT (1 um), semagacestat (125 nm) or vehicle control were administered on days 14-21. PFA-fixed cultures were stained for Muc5AC (red; mucin producing secretory cells), Acetylated tubulin (green; MCCs) and E-Cadherin (blue to reveal cell boundaries).
# HNEC cultures from a CF patient were treated with IL-13 from ALI+7 to 14 to induce inflammation. […] IL-13 treatment increases the percentage of mucin positive secretory cells and decreases the percentage of MCCs.
# To test whether GSI treatment has the ability to restore multiciliated cells in remodeled epithelia with fewer than normal multiciliated cells, healthy donor HNECs were treated with the IL-13 pro-inflammatory cytokine to model mucous metaplasia (7,24). IL-13 treatment from ALI+7 to 14d of culture led to the formation of excess mucus secretory cells, identified by MUCSAC labeling, at the expense of multiciliated cells (FIG. 38A). At ALI+14d, the cytokine was withdrawn, and cultures were treated for one week with LY450139, DAPT or DMSO control.
# Primary human nasal epithelial cell (HNEC) cultures. […] Primary air-liquid interface (ALI) culture of nasal epithelial cells from passage 0 (P0) or P1 basal stem cells was carried out as previously described (24,30). Briefly, cells are removed from cytobrushes with gentle enzymatic digestion. P0 HNEC cultures are initiated by seeding freshly isolated cells onto Collagen I coated Transwell filters. P1 HNEC cultures are initiated from basal cells that were first expanded on Collagen I coated plastic dishes in proliferation medium supplemented with Y-27632 (ROCK inhibitor, 10 μM), DMH-1 (BMP inhibitor, 1 μM), A-83-01, (TGF-β inhibitor, 1 μM), and CHIR99021 (WNT agonist, 1 μM)(42), all from Selleckchem. HNECs seeded onto Transwells are initially cultured submerged in proliferation medium until confluency, then lifted to ALI (considered as ALI+0d of culture) by supplying differentiation medium only from the bottom compartment. HNECs are considered mature at ALI+21d of culture. Healthy and CF HNECs used in the study were cultured in homemade media (24). CF HNECs used for the Ussing chamber measurements only were cultured in Pneumacult Ex+(proliferation) and Pneumacult ALI (differentiation) media (Stemcell). […] Healthy HNECs were treated with 10 ng/ml recombinant human IL-13 (RnD Systems).
# [2] = system: primary human nasal epithelial cells (HNECs); assay: Multiciliated cell (MCC) formation in HNEC air-liquid interface (ALI) cultures; format: cell-based; details: for multiciliated cell formation by apical versus basal application: ALI+0 to +21d from either the apical or basal surface; for multiciliated cell numbers, treatment during differentiation: differentiation only (ALI+0 to +21d) and continuous (preALI+ALI) treatments; for toxicity / disruption of epithelial structure at high concentration: micromolar doses (10 μM for LY450139); for multiciliated cell formation at the low concentration: low dose (based on IC50 for Notch inhibition); for multiciliated cell formation at the low concentration / multiciliated cell formation, treatment during proliferation only: labeled ALI+21d; for multiciliated cell formation in mature cultures: mature (ALI+30d) cultures treated one (ALI+30 to +37d) or two weeks (ALI+30 to +44d); for multiciliated cell formation, treatment during proliferation only: pre-ALI only (ALI-5 to -1d)
# Method: Air-Liquid Interface (ALI) cultures were prepared as described in Vladar E K, Nayak J V, Milla C E, Axelrod J D. Airway epithelial homeostasis and planar cell polarity signaling depend on multiciliated cell differentiation. JCI Insight. 2016; 1(13); e88027. Human nasal epithelial cells (HNECs) were generated from human sinonasal epithelial brushings or from tissue obtained from patients undergoing endoscopic sinus surgery at Stanford Hospital and cultured as described in Vladar et al.
# Cultures were treated with varying doses of semagacestat. DAFT (Abcam) was used ([…]) as a positive cone ml for GSI activity. Cultures were labeled at ALI+21 d with anti-acetylated α-tubulin (green) and ECAD (red) antibodies to mark cilia and epithelial junctions. […] The ratio was defined as MCC number/total luminal cells. Counting was done on one representative image from 5 culture replicates from a single donor.
# Primary human airway epithelial cells were treated with DAPT and LY45139: i) during proliferation only (ALI-5 to -Id), ii) during differentiation only (ALI+0 to +21d) or iii) continuously during the entire culture duration, followed by labeling at ALI+21d with anti-acetylated α-Tubulin (green) and ECAD (red) antibodies.
# Mature (ALI+30d) primary human airway epithelial cells were treated with DAFT and semagacestat for one (ALI+30 to +37d) or two weeks (ALI+30 to +44d), then labeled with anti-acetylated α-Tubulin (green) and ECAD (red) antibodies.
# Primary human airway epithelial cells were treated with DAFT and LY45139 during differentiation only (ALI+0 to +21d) from either the apical or basal surface, then labeled at ALI+21d with anti-acetylated α-Tubulin (green) and ECAD (red) antibodies. […] Apical treatment eliminates the air-liquid interface, which results in the poor epithelial structure and multiciliated cell differentiation in the untreated cultures, which is partially rescued by GSI treatment.
# While this effect may be beneficial as a therapeutic, DAPT is not suitable for human use. It was sought to identify GSIs for potential therapeutic application among small molecules previously used in clinical trials that were developed to have acceptable drug-like properties. […] Healthy human nasal epithelial cell (HNEC) primary cultures were grown at air-liquid interface (ALI) in homemade culture medium to support the consistent differentiation of multiciliated cells as approximately 45-55% of the luminal cells, similar to the in vivo airways (24) (FIG. 35A, 40A). The use of homemade culture medium is important, as cultures grown in commercially available Pneumacult medium often contain 85-95% multiciliated cells at the luminal surface (FIG. S4A). HNECs were treated with a low and high dose (based on IC50 for Notch inhibition, Selleckchem) of each compound during the entire 21 days of ALI differentiation (ALI+0 to 21d). The fraction of mature multiciliated cells was quantitated using wholemount ac. α-Tubulin antibody (marks ciliary axonemes) labeling. […] DMSO control treatment had no effect on multiciliated cell number (FIG. 40A).
# HNEC primary culture comprises an initial proliferative phase when basal stem cells establish the epithelial layer under submerged culture conditions (preALI), followed by differentiation induced, in part, by lifting to ALI (30). Thus, HNECs can be used to test GSI response in both regenerative and homeostatic settings. Notch signaling between luminal cells controls epithelial cell fate, but it is also active in basal cells and regulates their differentiation and survival (14,18,31). Thus, it was asked if the GSIs LY450139 or DAFT during the proliferative preALI phase only or during the entire culture duration (proliferative+differentiation; preALI+ALI) can induce multiciliated cell formation and if GSI treatment during stem cell proliferation has detrimental effects. PreALI, GSIs was added to both the apical and basal media, and during ALI, cultures were only treated basally. […]
# [3] = ALI+0 to +21d, listed as LY45139
# [4] = ALI+0 to +21d, listed as LY450139
# [5] = treated during differentiation ALI+0 to +21d
smiles,measurement,setting,value
"CC(C)[C@H](O)C(=O)N[C@@H](C)C(=O)N[C@@H]1C(=O)N(C)CCc2ccccc21 [semagacestat, (2S)-2-hydroxy-3-methyl-N-[(1 S)-1-methyl-2-oxo-2-[[(1 S)-2,3,4,5-tetrahydro-3-methyl-2-oxo-1H-3-benzazepin-1-yl]amino]ethyl]-butamide]",percentage of MCCs after IL-13 remodeling,[1],increasing the percentage of MCCs
same,percentage of mucin positive secretory (mucous) cells after IL-13 remodeling,[1],decreasing the percentage of mucin positive secretory cells
same,percentage of MCCs after IL-13 remodeling,[1]; listed as LY450139,significantly increased their proportion of multiciliated cell numbers; also recorded: induced multiciliated cell formation to levels comparable to healthy epithelia
same,percentage of mucin positive secretory (mucous) cells after IL-13 remodeling,[1]; listed as LY450139,reduction in the proportion of mucous cells
same,percentage of MCCs in controls without IL-13,"[1]; no IL-13, DAFT (1 um) or semagacestat (125 nm) days 14-21",increase the percentage off MCCs in controls; also recorded: increase the percentage of MCCs in controls
same,proportion of multiciliated cells,"[2]; 10 μM, ALI+0 to +21d",significant decrease
same,proportion of multiciliated cells,"[2]; 15.625 to 500 nM, ALI+0 to +21d",significant increase
same,multiciliated cell formation by apical versus basal application,[2]; listed as LY45139,induces ciliated cell formation via both apical and basal application
same,multiciliated cell formation by apical versus basal application,[2]; listed as LY450139,just as efficacious as basal treatment; also recorded: induces multiciliated cell formation via both apical and basal application
same,effect on Notch signaling and differentiation towards MCCs,[2]; administered in the nanomolar range to human nasal epithelial cells,"effective in blocking Notch signaling, driving differentiation towards MCCs"
same,"number of multiciliated cells, apical only treatment of submerged cultures","[2]; apical only, submerged cultures, vs untreated submerged cells",approximately double the number of multiciliated cells
same,"multiciliated cell numbers, treatment during differentiation",[2]; listed as LY45139,increased MCC cell numbers
same,"multiciliated cell numbers, treatment during differentiation",[2]; listed as LY450139,significant increase in the proportion of multiciliated cells; also recorded: increased multiciliated cell numbers
same,toxicity / disruption of epithelial structure at high concentration,[2]; ALI+0 to +21d,Toxicity is observed at micromolar doses
same,toxicity / disruption of epithelial structure at high concentration,[2]; [3],disrupted epithelial structure
same,toxicity / disruption of epithelial structure at high concentration,[2]; [4],disrupted the epithelial junctions; also recorded: disrupted epithelial structure
same,multiciliated cell formation at the low concentration,[2]; [3],induced multiciliated cell formation
same,multiciliated cell formation at the low concentration,[2]; [4],able to induce the formation of extra multiciliated cells; also recorded: induced multiciliated cell formation
same,dose dependence of multiciliated cell numbers,"[2]; lower (nM) concentrations, ALI+0 to +21d, listed as LY450139",increases the proportion of multiciliated cells in a dose dependent manner; also recorded: dose dependent increase in multiciliated cell numbers
same,multiciliated cell formation in mature cultures,[2],induces the formation of additional multiciliated cells in mature cultures
same,multiciliated cell formation in mature cultures,[2]; listed as LY450139,"robust induction of multiciliated cell formation; also recorded: able to drive multiciliated cell formation in differentiating as well as mature, homeostatic airway epithelial cultures; also recorded: induces the formation of additional multiciliated cells in mature cultures"
same,"multiciliated cell formation, treatment during proliferation only",[2]; listed as LY45139,had no effect on differentiation
same,"multiciliated cell formation, treatment during proliferation only",[2]; listed as LY450139,not sufficient to induce extra multiciliated cell formation; also recorded: no observable effect on subsequent differentiation; also recorded: no detrimental effect on multiciliated cells or overall epithelial structure
same,ratio MCC number/total luminal cells,"[2]; semagacestat 500 nM to 31.25 nM, labeled at ALI+21 d, vs untreated, p<0.01 by ANOVA",significant increases
same,concentration at which the percentage of MCCs reaches its maximum / begins to plateau,[2]; [5],around 125 nM
same,lowest concentration able to effectively increase the proportion of multiciliated cells,[2]; [5],31.25 nM
